This is an account of results in patent US5530133A, “7'-amino-naphthazarin antibiotic derivatives” (Gruppo Lepetit SpA, priority 1995, dated 1996).

SMILES strings stand for the structures.

The subject of experiment [1] is Trichomonas vaginalis (clin. isol.). The experiment is described as follows: MIC by broth dilution, Trichomonas vaginalis. Format: cell-based. The conditions noted are these: code TVL; approx. 10^5 cells/ml; Trichomonas Culture Medium Base + 10% horse serum; 48 h, 37° C. Here is the method:
Inocula were approximately 10^4 cfu. Incubation was for 48 hours at 37° C. in nitrogen-carbon dioxide-hydrogen (80:10:10). […] The inoculum was approximately 10^5 cells/ml. After 48 hours of incubation at 37° C. in nitrogen-carbon dioxide-hydrogen (80:10:10) the wells were viewed directly with a microscope to detect the presence of viable (motile) protozoa.
A general note: Broth dilution looks for growth in wells or tubes with falling amounts of substance.

Experiment [2] concerns Gardnerella vaginalis ATCC 14018. The experiment is described as follows: MIC by agar dilution, Gardnerella vaginalis. It is filed as cell-based. The conditions noted are these: code 332; Casman medium + rabbit blood; approx. 10^4 cfu; 48 h, 37° C.
Experiment [3] deals with Gram-positive and Gram-negative bacteria and fungi. The conditions noted are these: according to U.S. Pat. No. 3,914,257; fungi incl. Trichophyton mentagrophytes and Candida albicans; cited from earlier work.

What is called MIC is the least concentration at which growth counts as inhibited. For `CNC1=CC(=O)c2c(O)c3c(c(O)c2C1=O)OC1(CCc2cc4cc(C(=O)OC)oc(=O)c4c(O)c2O1)C3` (stereo not shown) [Example 32, 7'-methylamino γ-rubromycin], the MIC in experiment [1] amounted to 2 µg/mL. For `CCNC1=CC(=O)c2c(O)c3c(c(O)c2C1=O)OC1(C3)CC(O)c2cc3cc(C(=O)OC)oc(=O)c3c(O)c2O1` (stereo not shown) [Example 10, 7'-ethylamino purpuromycin], the minimal inhibitory concentration (MIC) amounted to 2 µg/mL in experiment [2] and 8 µg/mL in experiment [1].

On to `COC(=O)c1cc2cc3c(c(O)c2c(=O)o1)OC1(Cc2c(O)c4c(c(O)c2O1)C(=O)C(OC)=CC4=O)CC3O` (stereo not shown) [purpuromycin], for which the “in vitro antimicrobial activity” value in experiment [3] is “active in vitro against both Gram-positive and Gram-negative bacteria and fungi”.
